Tests used:
Test in all cases: Experiment on weeding effect in post-emergence stage
Assay type in all cases: in vivo
Details in all cases: dose 15 g a.i./ha, fresh weight control rate level
Abutilon theophrasti = system: Abutilon theophrasti
Method in brief: (§1)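 Herbicidal activity is judged on potted plants that receive a post-emergence spray at 500 to 15 g a.i./ha, with methyl oleate added as synergist. Effects are counted three weeks later in the greenhouse.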

Amaranthus retroflexus = system: Amaranthus retroflexus
Method in brief: as §1

Digitaria sanguinalis = system: Digitaria sanguinalis
Method in brief: as §1

Echinochloa crusgalli = system: Echinochloa crusgalli
Method in brief: as §1

Eleusine indica = system: Eleusine indica
Method in brief: as §1

Galium aparine = system: Galium aparine
Method in brief: as §1

Leptochloa chinensis = system: Leptochloa chinensis
Method in brief: as §1

Setaria viridis = system: Setaria viridis
Method in brief: as §1

Veronica didyma Tenore = system: Veronica didyma Tenore
Method in brief: as §1

Structure (SMILES)	weeding effect in post-emergence stage, Abutilon theophrasti (level) (Abutilon theophrasti)	weeding effect in post-emergence stage, Amaranthus retroflexus (level) (Amaranthus retroflexus)	weeding effect in post-emergence stage, Digitaria sanguinalis (level) (Digitaria sanguinalis)	weeding effect in post-emergence stage, Echinochloa crusgalli (level) (Echinochloa crusgalli)	weeding effect in post-emergence stage, Eleusine indica (level) (Eleusine indica)	weeding effect in post-emergence stage, Galium aparine (level) (Galium aparine)	weeding effect in post-emergence stage, Leptochloa chinensis (level) (Leptochloa chinensis)	weeding effect in post-emergence stage, Setaria viridis (level) (Setaria viridis)	weeding effect in post-emergence stage, Veronica didyma Tenore (level) (Veronica didyma Tenore)
CC(C)=NOC(=O)C1(C)CC(c2nc(-n3c(=O)n(C)c(=S)n(C)c3=O)c(F)cc2Cl)=NO1 (racemic) [Compound 16]	5 (Level 5: growth control rate is above 85%)	5 (Level 5: growth control rate is above 85%)	5 (Level 5: growth control rate is above 85%)	5 (Level 5: growth control rate is above 85%)	5 (Level 5: growth control rate is above 85%)	5 (Level 5: growth control rate is above 85%)	5 (Level 5: growth control rate is above 85%)	5 (Level 5: growth control rate is above 85%)	5 (Level 5: growth control rate is above 85%)
C/C(=N\OC(=O)C1(C)CC(c2cc(-n3c(=O)n(C)c(=S)n(C)c3=S)c(F)cc2Cl)=NO1)C(C)(C)C (stereo not drawn) [Compound 59]	5 (Level 5: growth control rate is above 85%)	5 (Level 5: growth control rate is above 85%)	5 (Level 5: growth control rate is above 85%)	5 (Level 5: growth control rate is above 85%)	5 (Level 5: growth control rate is above 85%)	5 (Level 5: growth control rate is above 85%)	5 (Level 5: growth control rate is above 85%)	5 (Level 5: growth control rate is above 85%)	5 (Level 5: growth control rate is above 85%)
CC(C)=NOC(=O)C1(C)CC(c2cc(-n3c(=O)n(C)c(=S)n(C)c3=S)c(F)cc2Cl)=NO1 (stereo not drawn) [Compound 56]	5 (Level 5: growth control rate is above 85%)	5 (Level 5: growth control rate is above 85%)	5 (Level 5: growth control rate is above 85%)	5 (Level 5: growth control rate is above 85%)	5 (Level 5: growth control rate is above 85%)	5 (Level 5: growth control rate is above 85%)	5 (Level 5: growth control rate is above 85%)	5 (Level 5: growth control rate is above 85%)	5 (Level 5: growth control rate is above 85%)
COCC(C)=NOC(=O)C1(C)CC(c2cc(-n3c(=O)n(C)c(=S)n(C)c3=O)c(F)cc2Cl)=NO1 (mixture of isomers) [Compound 121]	5 (Level 5: growth control rate is above 85%)	5 (Level 5: growth control rate is above 85%)	5 (Level 5: growth control rate is above 85%)	5 (Level 5: growth control rate is above 85%)	5 (Level 5: growth control rate is above 85%)	5 (Level 5: growth control rate is above 85%)	5 (Level 5: growth control rate is above 85%)	5 (Level 5: growth control rate is above 85%)	5 (Level 5: growth control rate is above 85%)
COC/C(C)=N/OC(=O)C1(C)CC(c2cc(-n3c(=O)n(C)c(=S)n(C)c3=S)c(F)cc2Cl)=NO1 (stereo not drawn) [Compound 68]	5 (Level 5: growth control rate is above 85%)	5 (Level 5: growth control rate is above 85%)	5 (Level 5: growth control rate is above 85%)	5 (Level 5: growth control rate is above 85%)	5 (Level 5: growth control rate is above 85%)	5 (Level 5: growth control rate is above 85%)	5 (Level 5: growth control rate is above 85%)	5 (Level 5: growth control rate is above 85%)	5 (Level 5: growth control rate is above 85%)
C/C=N/OC(=O)C1(C)CC(c2cc(-n3c(=O)n(C)c(=S)n(C)c3=S)c(F)cc2Cl)=NO1 (stereo not drawn) [Compound 54]	5 (Level 5: growth control rate is above 85%)	5 (Level 5: growth control rate is above 85%)	5 (Level 5: growth control rate is above 85%)	5 (Level 5: growth control rate is above 85%)	5 (Level 5: growth control rate is above 85%)	5 (Level 5: growth control rate is above 85%)	5 (Level 5: growth control rate is above 85%)	5 (Level 5: growth control rate is above 85%)	5 (Level 5: growth control rate is above 85%)
CC/C(C)=N/OC(=O)C1(C)CC(c2cc(-n3c(=O)n(C)c(=S)n(C)c3=S)c(F)cc2Cl)=NO1 (stereo not drawn) [Compound 57]	5 (Level 5: growth control rate is above 85%)	5 (Level 5: growth control rate is above 85%)	5 (Level 5: growth control rate is above 85%)	5 (Level 5: growth control rate is above 85%)	5 (Level 5: growth control rate is above 85%)	5 (Level 5: growth control rate is above 85%)	5 (Level 5: growth control rate is above 85%)	5 (Level 5: growth control rate is above 85%)	5 (Level 5: growth control rate is above 85%)
CC(C)=NOC(=O)C1(C)CC(c2cc(-n3c(=O)cc(C(F)(F)F)n(C)c3=O)c(F)cc2Cl)=NO1 (stereo not drawn) [Compound 160]	5 (Level 5: growth control rate is above 85%)	5 (Level 5: growth control rate is above 85%)	5 (Level 5: growth control rate is above 85%)	5 (Level 5: growth control rate is above 85%)	5 (Level 5: growth control rate is above 85%)	5 (Level 5: growth control rate is above 85%)	5 (Level 5: growth control rate is above 85%)	5 (Level 5: growth control rate is above 85%)	5 (Level 5: growth control rate is above 85%)
CCOC(C)=NOC(=O)C1(C)CC(c2cc(-n3c(=O)n(C)c(=S)n(C)c3=O)c(F)cc2Cl)=NO1 (mixture of isomers) [Compound 120]	5 (Level 5: growth control rate is above 85%)	5 (Level 5: growth control rate is above 85%)	5 (Level 5: growth control rate is above 85%)	5 (Level 5: growth control rate is above 85%)	5 (Level 5: growth control rate is above 85%)	5 (Level 5: growth control rate is above 85%)	5 (Level 5: growth control rate is above 85%)	5 (Level 5: growth control rate is above 85%)	5 (Level 5: growth control rate is above 85%)
CC(=NOC(=O)C1(C)CC(c2cc(-n3c(=O)n(C)c(=S)n(C)c3=O)c(F)cc2Cl)=NO1)C1CC1 (mixture of isomers) [Compound 84]	5 (Level 5: growth control rate is above 85%)	5 (Level 5: growth control rate is above 85%)	5 (Level 5: growth control rate is above 85%)	5 (Level 5: growth control rate is above 85%)	5 (Level 5: growth control rate is above 85%)	5 (Level 5: growth control rate is above 85%)	5 (Level 5: growth control rate is above 85%)	5 (Level 5: growth control rate is above 85%)	5 (Level 5: growth control rate is above 85%)

— patent US20230072860A1, “ISOXAZOLINE OXIME FORMATE COMPOUND, PREPARATION METHOD THEREFOR, HERBICIDAL COMPOSITION AND USE THEREOF” (QINGDAO KINGAGROOT CHEMICAL COMPOUND CO., LTD., priority 2020, published 2023)
